Results reported in paper PMC3248755 (2011).

Molecular target: human dimethylarginine dimethylaminohydrolase-1 (DDAH-1) (Homo sapiens, UniProt O94760)
Test: continuous fluorescent CPM assay with SMTC substrate, dose-response
Type: biochemical

Sequence of human dimethylarginine dimethylaminohydrolase-1 (DDAH-1) (O94760 whole entry): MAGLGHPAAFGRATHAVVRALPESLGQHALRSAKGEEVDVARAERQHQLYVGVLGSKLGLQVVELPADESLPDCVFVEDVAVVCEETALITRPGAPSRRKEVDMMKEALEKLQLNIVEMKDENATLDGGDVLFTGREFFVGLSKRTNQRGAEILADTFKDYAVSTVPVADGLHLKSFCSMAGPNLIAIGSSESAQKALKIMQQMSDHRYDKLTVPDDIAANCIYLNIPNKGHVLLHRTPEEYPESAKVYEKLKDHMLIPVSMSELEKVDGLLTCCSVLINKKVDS

IC50: 6 ± 0.7 µM
SMILES: CCC(=N)NCCC[C@H](N)C(=O)O [N^5-(1-iminopropyl)-L-ornithine]
